# Molecular target: T1, recombinant human GST-Syk (Homo sapiens, UniProt P43405)
# T1 construct: purchased Carna Biosciences 08-176
# Experiment: Homogeneous Time-Resolved Fluorescence (HTRF) assay for the recombinant human Syk enzyme
# Type: biochemical
# Conditions: ATP 25 μM, 10-dose titration, read-out: rhSYK Activity
# Method in brief: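 Recombinant GST-hSyk ([…]) was preincubated 10 min at room temperature with inhibitor (0.1% DMSO) in Tris pH 7.5, then reacted for 45 min with 250 nM biotinylated peptide, 5 mM Mg and 25 μM ATP. Phosphorylation was detected by HTRF (Eu-anti-phosphotyrosine/SA-APC). IC50 was derived from a 10-dose titration (10 μM–0.508 nM) with a 4-parameter fit.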
row,Compound,IC50
1,"Cc1cc(Nc2nccc(C(F)(F)F)n2)cc(-n2cnc([C@]3(O)CC[C@](C)(C(=O)O)CC3)c2)c1 [Example 20, trans-4-hydroxy-1-methyl-4-[1-(3-methyl-5-{[4-(trifluoromethyl)-pyrimidin-2-yl]amino)-phenyl)-1H-imidazol-4-yl]cyclohexanecarboxylic acid]",≤ 100 nM
2,"Cc1cc(Nc2cc(C(C)(C)C)ccn2)nc(-n2cnc([C@]3(O)CC[C@@H](OC(=O)c4ccccc4)CC3)c2)c1 [Example 52, cis-4-(1-{6-[(4-tert-butylpyridin-2-yl)amino]-4-methylpyridin-2-yl}-1H-imidazol-4-yl)-4-hydroxycyclohexyl benzoate]",≤ 100 nM
3,"Cc1cc(Nc2cc(C(F)(F)F)ccn2)nc(-n2cnc([C@]3(O)CC[C@@H](C(=O)O)CC3)c2)c1 [Example 27, cis-4-hydroxy-4-[1-(4-methyl-6-{[4-(trifluoromethyl)pyridin-2-yl]amino}pyridin-2-yl)-1H-imidazol-4-yl]cyclohexanecarboxylic acid]",≤ 100 nM
4,"Cc1cc(Nc2nccc(C(F)(F)F)n2)cc(-n2cnc([C@@]3(O)CC[C@H](O)[C@@H](C)C3)c2)c1 [Example 55, (1R,3S,4S)-3-methyl-1-[1-(3-methyl-5-{[4-(trifluoromethyl)pyrimidin-2-yl]amino}phenyl)-1H-imidazol-4-yl]cyclohexane-1,4-diol]",≤ 100 nM
5,"COc1ccnc(Nc2cc(C)cc(-n3cnc([C@]4(O)CC[C@@H](O)CC4)c3)c2)n1 [Example 39, cis-1-(1-{3-[(4-methoxypyrimidin-2-yl)amino]-5-methylphenyl}-1H-imidazol-4-yl)cyclohexane-1,4-diol]",≤ 100 nM
6,"COC(=O)c1cn(-c2cccc(Nc3cc(Cl)ccn3)n2)cn1 [Example 69, Methyl 1-{6-[(4-chloropyridin-2-yl)amino]pyridin-2-yl}-1H-imidazole-4-carboxylate]",100 to 1000 nM
7,"COC(=O)C[C@H]1CC[C@](O)(c2cn(-c3cc(C)cc(Nc4nccc(C(F)(F)F)n4)c3)cn2)CC1 [Example 18, Methyl {cis-4-hydroxy-4-[1-(3-methyl-5-{[4-(trifluoromethyl)pyrimidin-2-yl]amino}phenyl)-1H-imidazol-4-yl]-cyclohexyl}acetate]",≤ 100 nM
8,"Cc1cc(Nc2cc(C(F)(F)F)ccn2)nc(-n2cnc([C@]3(O)CC[C@H](C(=O)O)CC3)c2)c1 [Example 26, trans-4-hydroxy-4-[1-(4-methyl-6-{[4-(trifluoromethyl)pyridin-2-yl]amino}pyridin-2-yl)-1H-imidazol-4-yl]cyclohexanecarboxylic acid]",≤ 100 nM
9,"Cc1cc(Nc2nccc(C(F)(F)F)n2)cc(-n2cnc([C@]3(O)CC[C@@H](O)[C@@H](C)C3)c2)c1 [Example 56, (1S,3S,4R)-3-methyl-1-[1-(3-methyl-5-{[4-(trifluoromethyl)pyrimidin-2-yl]amino}phenyl)-1H-imidazol-4-yl]cyclohexane-1,4-diol]",≤ 100 nM
10,"Cc1cc(Nc2cc(C)c(Cl)cn2)nc(-n2cnc([C@]3(O)CC[C@@H](O)CC3)c2)c1 [Example 44, cis-1-(1-{6-[(5-chloro-4-methylpyridin-2-yl)amino]-4-methylpyridin-2-yl}-1H-imidazol-4-yl)cyclohexane-1,4-diol]",≤ 100 nM

# Other lines, results leading:
row,IC50,Compound
1,≤ 100 nM,"Cc1cc(Nc2nccc(C(F)(F)F)n2)cc(-n2cnc(C(C)(C)O)c2)c1 [Example 99, 2-[1-(3-methyl-5-{[4-(trifluoromethyl)pyrimidin-2-yl]amino}phenyl)-1H-imidazol-4-yl]propan-2-ol]"
2,≤ 100 nM,"Cc1ccnc(Nc2cc(C)cc(-n3cnc(C(O)(C4CC4)C4CC4)c3)n2)c1 [Example 86, dicyclopropyl(1-{4-methyl-6-[(4-methylpyridin-2-yl)amino]pyridin-2-yl}-1H-imidazol-4-yl)methanol]"
3,≤ 100 nM,"Cc1cc(Nc2nccc(C(F)(F)F)n2)cc(-n2cnc(C(=O)O)c2)c1 [Example 78, 1-(3-methyl-5-{[4-(trifluoromethyl)-pyrimidin-2-yl]amino}-phenyl)-1H-imidazole-4-carboxylic acid]"
4,100 to 1000 nM,"COC(=O)c1cn(-c2cc(Nc3nccc(C(F)(F)F)n3)cc(N3CCOCC3)c2)cn1 [Example 108, Methyl 1-(3-morpholin-4-yl-5-{[4-(trifluoromethyl)-pyrimidin-2-yl]amino}-phenyl)-1H-imidazole-4-carboxylate]"
5,≤ 100 nM,"Cc1cc(Nc2nccc(C(F)(F)F)n2)cc(-n2cnc(C(C)(O)CO)c2)c1 (racemic) [Example 113, (rac)-2-[1-(3-Methyl-5-{[4-(trifluoromethyl)pyrimidin-2-yl]amino}phenyl)-1H-imidazol-4-yl]propane-1,2-diol]"
6,≤ 100 nM,"O=C(O)CCc1cn(-c2cccc(Nc3cc(C(F)(F)F)ccn3)n2)cn1 [Example 114, 3-(1-(6-((4-(Trifluoromethyl)pyridin-2-yl)amino)pyridin-2-yl)-1H-imidazol-4-yl)propanoic acid]"

# Same assay, conditions: ATP 25 μM, 10-dose titration, read-out: rhSYK IC50
row,IC50,Compound
1,0.757 nM,"Cc1cc(Nc2cc(C(F)(F)F)ccn2)nc(-n2cnc([C@]3(O)CC[C@@H](C(=O)O)CC3)c2)c1 [Example 27, cis-4-hydroxy-4-[1-(4-methyl-6-{[4-(trifluoromethyl)pyridin-2-yl]amino}pyridin-2-yl)-1H-imidazol-4-yl]cyclohexanecarboxylic acid]"

# System: allergic rhinitis
# Experiment: not given
# Conditions: phase II clinical trial; cited from earlier work
row,Compound,efficacy versus placebo
1,Oc1cccc(Nc2ncc(F)c(Nc3cccc(O)c3)n2)c1 [Example R112],lack of efficacy versus placebo

# System: allergic rhinitis
# Experiment: not given
# Conditions: dosed intranasally, phase I/II study; cited from earlier work
Compound,PGD2 change,clinical safety
Oc1cccc(Nc2ncc(F)c(Nc3cccc(O)c3)n2)c1 [Example R112],statistically significant decrease in PGD2,safe across a range of indicators

# From patent publication US9487504B2, “Imidazolyl analogs as syk inhibitors” (Merck Sharp & Dohme Corp., priority 2012, dated 2016)
